One data set deals with PDK1 (Homo sapiens, UniProt O15530). Kind of data set: Kinase profiling, single-dose in vitro kinase assay (Caliper Life Sciences). Particulars: read-out: Average % Inhibition PDK1.
The target in another data set is CHK2 (Homo sapiens, UniProt O96017). Described as above. Particulars: read-out: Average % Inhibition CHK2.
In the next data set the test system is PC3 cells. Kind of data set: Cyclin D1 and cyclin D3 levels (Western blot). Format: cell-based. In general terms: A western blot detects proteins with antibodies after separation by electrophoresis.
The next data set addresses BTK (Homo sapiens, UniProt Q06187). In words: Kinase profiling, single-dose in vitro kinase assay (Caliper Life Sciences). Conditions: read-out: Average % Inhibition BTK.
The target of another data set is SRC (Homo sapiens, UniProt P12931). The description is as above. Particulars: read-out: Average % Inhibition SRC.
In a further data set the target is MSK1 (Homo sapiens, UniProt O75582). The data set is described as above. Conditions: read-out: Average % Inhibition MSK1.
A further data set addresses KDR (Homo sapiens, UniProt P35968). Described as above. Conditions: read-out: Average % Inhibition KDR.
Another data set deals with IBSR (Homo sapiens, UniProt P06213). The data set is described as above. Conditions: read-out: Average % Inhibition IBSR.
For the next data set, the target named is T1, PKD1 (Homo sapiens, UniProt Q15139).
T1 sequence (Q15139 1-912): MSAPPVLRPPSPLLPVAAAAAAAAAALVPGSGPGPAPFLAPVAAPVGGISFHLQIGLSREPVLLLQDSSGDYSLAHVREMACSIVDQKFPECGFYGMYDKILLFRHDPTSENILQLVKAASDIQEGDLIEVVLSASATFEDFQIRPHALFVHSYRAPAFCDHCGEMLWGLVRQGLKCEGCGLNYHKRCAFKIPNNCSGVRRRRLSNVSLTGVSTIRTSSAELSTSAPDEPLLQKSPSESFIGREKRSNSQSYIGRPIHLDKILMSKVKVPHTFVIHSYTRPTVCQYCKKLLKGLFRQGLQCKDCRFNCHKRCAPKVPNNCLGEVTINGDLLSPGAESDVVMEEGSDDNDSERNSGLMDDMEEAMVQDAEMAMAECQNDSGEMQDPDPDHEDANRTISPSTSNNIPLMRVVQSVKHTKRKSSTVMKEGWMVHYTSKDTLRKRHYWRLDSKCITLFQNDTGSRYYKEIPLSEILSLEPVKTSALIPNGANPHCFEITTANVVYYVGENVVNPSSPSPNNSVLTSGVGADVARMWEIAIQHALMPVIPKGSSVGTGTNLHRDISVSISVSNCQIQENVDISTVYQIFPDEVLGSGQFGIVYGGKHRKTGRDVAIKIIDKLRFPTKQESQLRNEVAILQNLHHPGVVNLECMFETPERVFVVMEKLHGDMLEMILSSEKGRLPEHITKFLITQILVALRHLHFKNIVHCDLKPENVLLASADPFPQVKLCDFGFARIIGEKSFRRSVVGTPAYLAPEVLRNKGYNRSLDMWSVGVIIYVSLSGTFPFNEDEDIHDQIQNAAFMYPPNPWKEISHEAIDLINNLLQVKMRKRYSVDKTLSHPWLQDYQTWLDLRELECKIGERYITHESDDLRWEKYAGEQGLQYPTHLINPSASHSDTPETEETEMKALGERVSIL
Kind of data set: Inhibition of PMA-induced endogenous PKD1 activation in LNCaP cells (Western blot). The data set is classed as cell-based. Details: endogenous in cells; host or cells: LNCaP. Conditions: 45 min pretreatment, 100 nM PMA 20 min, densitometry of Western blots, mean ± S.E.M., read-out: Cellular IC50, inhibition of PKD1 autophosphorylation at S916. The procedure: LNCaP cells were maintained as described previously. Western blot analysis was carried out as previously reported. Briefly, cells were lysed in lysis buffer containing 200 mM Tris-HCl, pH 7.4, 100 μM 4-(2-aminoethyl) benzenesulfonyl fluoride, 1 mM EGTA, and 1% Triton X-100. Protein concentration was determined using the BCA Protein Concentration Assay reagent kit (Pierce) and then equal amounts of protein were subjected to SDS-PAGE followed by electrotransfer to nitrocellulose membranes. Membranes were blocked with 5% nonfat milk in Tris-buffered saline and then probed with primary antibodies for either p-S916-PKD1 (Millipore), p-S742-PKCμ/PKD (Biosource), or GAPDH, followed by anti-mouse or anti-rabbit secondary antibodies conjugated to horseradish peroxidase (Bio-Rad). The enhanced chemiluminescence (ECL) Western blotting detection system (Amersham Biosciences) was used to facilitate detection of protein bands.
LNCaP cells were pretreated with indicated concentrations of the five analogs for 45 min, then stimulated with 100 nM PMA for 20 min. Cell lysates were immunoblotted for p-S916-PKD1 and p-S742-PKD1. GAPDH was blotted as a loading control. The experiment was repeated at least three times and representative blots are shown.

The target in a further data set is T2, CAMKIIα (Homo sapiens, UniProt Q9UQM7).
T2 construct: purchased Enzo Life Sciences
In words: In vitro radiometric CAMK kinase assay. Format: biochemical. The procedure: In vitro radiometric kinase assays were conducted as previously described. Briefly, 1 μCi [γ-^32P] ATP (PerkinElmer Life Sciences), 70 μM ATP, 50 ng purified recombinant human PKD1 (Biomol International, Plymouth Meeting, PA), PKD2 (SignalChem, Richmond, BC, Canada), or CAMKIIα (Enzo Life Sciences) or 75 ng PKD3 (Enzo Life Sciences), and 2.5 μg syntide-2 (Sigma) in 50 μl kinase buffer containing 50 mM Tris-HCl, pH 7.5, 4 mM MgCl2, and 10 mM β-mercaptoethanol. For the CAMK assay, 0.5 mM CaCl2 and 30 ng/μl calmodulin were pre-incubated for 10 min on ice, and then added to each reaction mixture. The reaction was incubated at 30°C for 10 min, and 25 μl of the reaction mixture was then spotted onto Whatman P81 filter paper (Whatman Inc., Clifton, NJ). The filter papers were washed 3 times in 0.5% phosphoric acid, air-dried, and counted using a Beckman LS6500 multipurpose scintillation counter (Beckman).
To determine whether the novel analogs retained this specificity, we tested the compounds against their ability to inhibit PKCα, -βI, -δ, and CAMKIIα in in vitro radiometric kinase activity assays.
Inhibition of PKCα (A), PKCβI (B), PKCδ (C), or CAMKIIα (D) by each of the 5 analogs was determined at 100 nM, 1 μM, and 10 μM concentrations. […] Statistical significance was determined using the unpaired t-test. ns, not statistically significant; *, p < 0.05; **, p < 0.01; ***, p < 0.001.

The values that follow come from PMC2873968, “Novel protein kinase D inhibitors cause potent arrest in prostate cancer cell growth and motility” (BMC Chemical Biology, 2010).

CHK2, sequence (O96017 whole entry): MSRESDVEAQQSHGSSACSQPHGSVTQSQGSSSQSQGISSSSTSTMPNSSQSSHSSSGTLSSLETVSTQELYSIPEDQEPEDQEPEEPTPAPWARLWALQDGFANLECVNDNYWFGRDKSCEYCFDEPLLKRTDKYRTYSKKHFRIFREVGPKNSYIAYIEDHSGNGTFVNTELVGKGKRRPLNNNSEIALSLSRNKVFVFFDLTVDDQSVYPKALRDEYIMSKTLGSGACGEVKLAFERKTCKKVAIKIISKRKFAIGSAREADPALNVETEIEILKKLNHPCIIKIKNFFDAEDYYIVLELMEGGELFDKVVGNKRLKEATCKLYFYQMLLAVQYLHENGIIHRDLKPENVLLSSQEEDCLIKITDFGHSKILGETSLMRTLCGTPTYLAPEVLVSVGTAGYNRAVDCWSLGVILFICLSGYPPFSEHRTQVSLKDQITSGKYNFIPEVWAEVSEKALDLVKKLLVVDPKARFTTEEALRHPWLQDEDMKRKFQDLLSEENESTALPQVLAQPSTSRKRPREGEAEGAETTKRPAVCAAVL
BTK, sequence (Q06187 whole entry): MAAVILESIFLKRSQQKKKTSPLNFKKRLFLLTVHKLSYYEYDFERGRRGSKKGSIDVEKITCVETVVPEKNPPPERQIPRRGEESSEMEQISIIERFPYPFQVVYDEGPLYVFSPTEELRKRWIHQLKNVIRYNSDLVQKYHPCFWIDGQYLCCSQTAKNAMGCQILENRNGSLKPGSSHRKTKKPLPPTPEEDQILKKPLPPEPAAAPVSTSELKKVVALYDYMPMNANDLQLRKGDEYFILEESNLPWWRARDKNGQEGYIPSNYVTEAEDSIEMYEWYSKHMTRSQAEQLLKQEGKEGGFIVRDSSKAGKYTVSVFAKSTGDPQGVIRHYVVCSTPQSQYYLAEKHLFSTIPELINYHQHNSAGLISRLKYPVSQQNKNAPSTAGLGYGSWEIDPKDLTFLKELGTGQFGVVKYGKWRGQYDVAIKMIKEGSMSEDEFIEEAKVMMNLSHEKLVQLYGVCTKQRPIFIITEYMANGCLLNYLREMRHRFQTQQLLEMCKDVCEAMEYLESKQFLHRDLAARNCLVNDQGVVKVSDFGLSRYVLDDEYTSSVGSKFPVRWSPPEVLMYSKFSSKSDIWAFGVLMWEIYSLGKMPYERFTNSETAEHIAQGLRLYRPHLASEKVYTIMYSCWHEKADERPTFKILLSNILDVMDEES
IBSR, sequence (P06213 28-1382): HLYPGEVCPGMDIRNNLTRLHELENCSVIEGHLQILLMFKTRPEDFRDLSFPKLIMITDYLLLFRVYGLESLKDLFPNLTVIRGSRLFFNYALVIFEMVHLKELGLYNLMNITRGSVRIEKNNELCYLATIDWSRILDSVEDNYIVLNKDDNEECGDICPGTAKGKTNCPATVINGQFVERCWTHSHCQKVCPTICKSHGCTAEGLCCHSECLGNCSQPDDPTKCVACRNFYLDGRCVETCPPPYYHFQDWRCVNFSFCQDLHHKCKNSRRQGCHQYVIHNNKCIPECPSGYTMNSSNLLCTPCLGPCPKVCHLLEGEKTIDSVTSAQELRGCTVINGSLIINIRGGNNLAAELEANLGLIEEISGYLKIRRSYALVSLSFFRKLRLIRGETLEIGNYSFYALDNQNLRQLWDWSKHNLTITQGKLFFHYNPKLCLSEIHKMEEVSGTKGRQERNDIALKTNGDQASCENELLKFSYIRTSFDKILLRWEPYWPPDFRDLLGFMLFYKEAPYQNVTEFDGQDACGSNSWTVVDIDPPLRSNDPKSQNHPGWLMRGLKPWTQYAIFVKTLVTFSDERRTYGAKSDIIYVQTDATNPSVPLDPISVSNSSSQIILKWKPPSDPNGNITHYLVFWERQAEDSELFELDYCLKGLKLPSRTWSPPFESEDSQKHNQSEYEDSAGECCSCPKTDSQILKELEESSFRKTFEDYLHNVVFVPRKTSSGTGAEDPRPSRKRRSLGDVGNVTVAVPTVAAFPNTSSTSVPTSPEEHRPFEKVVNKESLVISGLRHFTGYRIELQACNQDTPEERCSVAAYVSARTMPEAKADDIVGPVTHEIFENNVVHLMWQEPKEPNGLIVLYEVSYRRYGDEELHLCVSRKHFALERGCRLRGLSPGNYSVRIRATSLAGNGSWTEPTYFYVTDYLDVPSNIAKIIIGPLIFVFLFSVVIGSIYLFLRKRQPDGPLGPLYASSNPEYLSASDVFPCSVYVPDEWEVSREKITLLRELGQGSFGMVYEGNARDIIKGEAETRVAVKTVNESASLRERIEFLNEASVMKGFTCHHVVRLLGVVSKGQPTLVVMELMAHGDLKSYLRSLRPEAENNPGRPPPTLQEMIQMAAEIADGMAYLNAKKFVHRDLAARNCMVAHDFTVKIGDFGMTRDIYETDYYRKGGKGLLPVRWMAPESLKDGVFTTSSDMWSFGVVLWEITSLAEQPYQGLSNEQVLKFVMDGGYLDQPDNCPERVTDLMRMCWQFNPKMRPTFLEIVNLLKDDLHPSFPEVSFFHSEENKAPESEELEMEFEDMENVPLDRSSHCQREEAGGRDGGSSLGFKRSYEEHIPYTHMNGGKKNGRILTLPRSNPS
PDK1, sequence (O15530 whole entry): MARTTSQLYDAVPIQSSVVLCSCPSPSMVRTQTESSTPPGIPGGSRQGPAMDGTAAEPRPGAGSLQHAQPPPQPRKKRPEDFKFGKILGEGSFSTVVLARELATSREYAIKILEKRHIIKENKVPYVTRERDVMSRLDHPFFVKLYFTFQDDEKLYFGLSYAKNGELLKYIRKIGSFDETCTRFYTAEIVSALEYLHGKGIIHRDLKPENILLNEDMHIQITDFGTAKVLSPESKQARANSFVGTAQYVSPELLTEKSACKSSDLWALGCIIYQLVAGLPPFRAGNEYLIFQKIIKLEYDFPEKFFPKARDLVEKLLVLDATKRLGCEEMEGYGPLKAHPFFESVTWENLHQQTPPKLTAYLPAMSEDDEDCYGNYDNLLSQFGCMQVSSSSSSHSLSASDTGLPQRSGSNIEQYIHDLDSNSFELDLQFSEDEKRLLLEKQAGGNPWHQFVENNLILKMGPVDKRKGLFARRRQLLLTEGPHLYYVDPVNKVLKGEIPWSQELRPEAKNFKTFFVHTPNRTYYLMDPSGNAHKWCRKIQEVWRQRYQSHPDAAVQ
KDR, sequence (P35968 20-1356): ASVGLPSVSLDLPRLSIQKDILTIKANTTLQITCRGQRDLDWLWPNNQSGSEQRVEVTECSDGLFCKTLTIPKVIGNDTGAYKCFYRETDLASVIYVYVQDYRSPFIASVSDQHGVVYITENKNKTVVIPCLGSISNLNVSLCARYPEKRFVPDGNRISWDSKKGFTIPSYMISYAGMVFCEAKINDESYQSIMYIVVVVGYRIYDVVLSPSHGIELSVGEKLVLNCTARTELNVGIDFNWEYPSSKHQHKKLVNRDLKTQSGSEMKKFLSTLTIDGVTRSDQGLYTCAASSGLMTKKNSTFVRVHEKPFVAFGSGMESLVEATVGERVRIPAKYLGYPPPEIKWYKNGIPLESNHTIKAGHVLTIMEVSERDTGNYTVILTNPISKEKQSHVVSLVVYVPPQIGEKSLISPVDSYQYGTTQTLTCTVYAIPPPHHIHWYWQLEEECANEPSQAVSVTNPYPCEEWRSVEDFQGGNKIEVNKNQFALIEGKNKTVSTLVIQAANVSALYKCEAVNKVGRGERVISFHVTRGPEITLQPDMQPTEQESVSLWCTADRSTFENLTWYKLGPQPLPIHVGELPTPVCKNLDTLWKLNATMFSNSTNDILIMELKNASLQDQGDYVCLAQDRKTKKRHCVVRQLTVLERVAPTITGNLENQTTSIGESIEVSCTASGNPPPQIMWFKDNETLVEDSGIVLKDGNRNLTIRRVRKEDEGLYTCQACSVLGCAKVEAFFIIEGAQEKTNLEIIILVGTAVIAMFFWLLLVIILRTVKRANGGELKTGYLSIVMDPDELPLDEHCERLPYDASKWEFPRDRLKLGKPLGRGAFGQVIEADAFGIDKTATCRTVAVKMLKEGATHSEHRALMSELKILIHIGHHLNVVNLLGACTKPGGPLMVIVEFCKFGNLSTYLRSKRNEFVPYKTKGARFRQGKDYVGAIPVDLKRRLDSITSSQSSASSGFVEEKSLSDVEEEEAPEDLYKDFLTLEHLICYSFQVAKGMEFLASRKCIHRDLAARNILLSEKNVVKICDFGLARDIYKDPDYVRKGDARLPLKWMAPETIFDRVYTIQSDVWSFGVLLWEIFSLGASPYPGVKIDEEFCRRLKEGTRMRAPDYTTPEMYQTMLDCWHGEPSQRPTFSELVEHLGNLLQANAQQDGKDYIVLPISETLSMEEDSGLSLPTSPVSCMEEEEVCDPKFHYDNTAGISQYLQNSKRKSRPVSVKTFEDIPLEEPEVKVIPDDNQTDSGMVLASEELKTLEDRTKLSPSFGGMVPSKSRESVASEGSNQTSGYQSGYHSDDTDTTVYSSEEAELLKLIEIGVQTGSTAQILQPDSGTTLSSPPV
SRC, sequence (P12931 whole entry): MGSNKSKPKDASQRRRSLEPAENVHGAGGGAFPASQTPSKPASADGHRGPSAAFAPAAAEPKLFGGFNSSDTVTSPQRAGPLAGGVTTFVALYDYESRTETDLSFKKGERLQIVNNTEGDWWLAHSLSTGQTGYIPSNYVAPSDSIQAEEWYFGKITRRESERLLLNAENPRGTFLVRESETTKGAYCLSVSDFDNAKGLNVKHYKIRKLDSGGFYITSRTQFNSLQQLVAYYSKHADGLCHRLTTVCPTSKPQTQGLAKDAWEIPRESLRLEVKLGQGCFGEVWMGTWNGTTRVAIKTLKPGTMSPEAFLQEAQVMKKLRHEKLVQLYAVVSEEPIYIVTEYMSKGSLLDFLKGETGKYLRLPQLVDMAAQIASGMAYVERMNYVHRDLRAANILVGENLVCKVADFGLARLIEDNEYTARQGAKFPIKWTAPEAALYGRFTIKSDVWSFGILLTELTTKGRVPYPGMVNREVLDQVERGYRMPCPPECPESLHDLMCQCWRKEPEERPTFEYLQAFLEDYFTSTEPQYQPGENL

Regarding `O=C1NCCCc2c1oc1ccc(O)cc21` [CID755673, 7-Hydroxy-2,3,4,5-tetrahydro-[1]benzoxolo[2,3-c]azepin-1-one], the inhibition (usually the change of the read-out against control, counted positive when it falls) at 10 µM was 22% at PDK1; 4% at CHK2; -3% on BTK; 7% on SRC; 7% at MSK1; 8% on KDR. Moreover, at IBSR, the inhibition at 10 µM was found to be 3%. In addition, in the data set with PC3 cells (48 hrs), the “cyclin D1 and D3 levels” value is “induced cyclin D1 and D3 expression in a concentration-dependent manner”.
For the compound `O=C1NCCSc2c1sc1ccc(O)cc21` [kb-NB142-70], the IC50 (as a rule, the point on the concentration scale where inhibition reaches its midpoint) at PKD1 stood at 2.2 ± 0.6 µM.
The same measure, in the same setting: for `COc1ccc2sc3c(c2c1)SCCNC3=O` [kb-NB165-09] the value was 3.1 ± 0.5 µM.
`O=C1NCCSc2c1sc1ccc(O)c(I)c21` [kb-NB165-31]: the “inhibition of CAMKIIα (in words)” value at CAMKIIα is reported as “significant inhibitory activity”. For the same compound, the inhibition at 10 µM against CAMKIIα (10 μM) was ~70%. Further, the half-maximal inhibitory concentration (IC50) on PKD1 was 8.6 ± 2 µM.
Consider `O=C1NCCCSc2c1sc1ccc(O)cc21` [kb-NB165-92], for which the IC50 at PKD1 turned out to be 2.6 ± 0.7 µM. For the same compound, in the data set on PC3 cells (10 μM), the cell death result is “caused significant cell death”.
As to `COc1ccc2sc3c(c2c1)SCCCNC3=O` [kb-NB184-02], the IC50 at PKD1 came out at 18.6 ± 2 µM.
